Tests used:
Assay type in all cases: physicochemical
[1] = Glucose NaCl kinetics of dissolution via refractometry; details: 60 mL of water, stirring, particle size 100-200 μm, average of three experiments
Procedure: The (Glucose)2⋅NaCl⋅H2O co-crystals of Example 3 were tested for their dissolution behavior by refractometry. The equipment used was a RFM300+ refractometer by Bellingham and Stanley. The test samples were added to 60 mL of water, and the dissolution was measured under stirring at 50 rpm using a refractometer with one measurement/second for […]. Every dissolution experiment was performed three times and the average value was calculated. The particle size was 100-200 μm.

[2] = Dissolution kinetics via microscopic analysis (video-microscopy of one individual crystal in water); details: 100-200 μm, fully immersed in 10 μL of water
Procedure: One individual crystal of sodium chloride, Glucose monohydrate, anhydrous Glucose and of (Glucose)2⋅NaCl⋅H2O co-crystal prepared according to the method of Example 3 was tested for its dissolution behavior by microscope. The analysis was performed in analogy to the method described by Quilaqueo et al. (“Dissolution of NaCl crystals in artificial saliva and water by video-microscopy”, Food Research International 69, 2015, p. 373-380).
A digital microscope was used to perform video-microscopy on the co-crystals and their respective individual components. Crystal size in general ranged between 100-200 μm. Images were recorded on a DFC450 digital microscope from Leica Microsystems with a high quality 5 Megapixel CCD sensor. The light intensity and contrast were controlled by using a VH-K20 Variable Illumination. The software used to record and analyze the video images was provided by the supplier of the module Leica LAS MultiTime.
One individual crystal specimen of sufficient quality and crystallinity was fixed on the microscope table using double-face adhesive tape. The crystal was fully immersed in 10 μL of water and the video recorded in parallel. The recording was dissected into individual film stills and the remaining crystalline area was determined until complete dissolution occurred using the respective software.
Applying this methodology, a first order kinetic was used to interpret the result:
Where At is the area (μm^2) of the remaining solid crystal at a time t (in seconds), A0 is the initial area (μm^2) of the crystal, t is the time (s) and k is the constant (s^−1).

[3] = Dissolution kinetics via refractometry for the system sucrose/sodium chloride; details: 60 mL of water, room temperature, constant stirring, particle size 63-100 μm
Procedure: Changes in refraction of the solution were measured at room temperature while adding a defined amount of solid material to the solvent (60 mL of water) under constant stirring. The equipment used is composed of a magnetic stirrer and a digital refractive index probe (Fiso technologies) capable of constant measurement. Once the powder is added, refractive indices are recorded as a function of time. This technique was used to compare the dissolution behavior of the sucrose⋅NaCl⋅H2O co-crystal with its pure individual components as well as the physical mixture of the two pure ingredients. The particle size of all solids was standardized to be in between 63-100 μm.
Quantities Used for the Measurements:
Sucrose⋅NaCl⋅H2O co-crystal 2.00 g

Structure (SMILES) | 10% dissolution reached at [1] [s] | 50% dissolution reached at [1] [s] | 90% dissolution reached at [1] [s] | 90% dissolution reached at ([1]; listed as (Glucose)2⋅NaCl⋅H2O) [s] | 90% dissolution reached at ([1]; listed as (Glucose)2⋅NaCl⋅H2O co-crystals) [s] | k, constant of first order dissolution kinetic (crystal area over time) [2] [s⁻¹] | dissolution speed (normalized refractive index versus time, FIG. 7) [3]
O.OC[C@H]1O[C@H](O)[C@H](O)[C@@H](O)[C@@H]1O.OC[C@H]1O[C@H](O)[C@H](O)[C@@H](O)[C@@H]1O.[Cl-].[Na+] [(Glucose)2•NaCl•H2O co-crystal, (α-D-Glucose)2⋅NaCl⋅H2O] | 6 | 11 | 25 | 25 | ≤ 25 | 0.19 | 
OC[C@H]1OC(O)[C@H](O)[C@@H](O)[C@@H]1O (stereo partly drawn) [Anhydrous Glucose] | 6 | 17 | 289 |  |  | 0.14 | 
O.OC[C@H]1O[C@H](O)[C@H](O)[C@@H](O)[C@@H]1O [Glucose monohydrate, alpha-D-(+)-Glucose monohydrate] | 6 | 51 | 214 |  |  | 0.08 | 
[Cl-].[Na+] [NaCl, sodium chloride] | 4 | 8 | 29 |  |  | 0.21 | dissolves the fastest
OC[C@H]1O[C@@](CO)(O[C@H]2O[C@H](CO)[C@@H](O)[C@H](O)[C@H]2O)[C@@H](O)[C@@H]1O [Pure sucrose, (D)-(+)-Sucrose] |  |  |  |  |  |  | dissolves much slower
O.O.OCC1OC(OC2(CO)OC(CO)C(O)C2O)C(O)C(O)C1O.[Cl-].[Na+] (stereo not drawn) [sucrose⋅NaCl⋅H2O co-crystal, Sucrose⋅NaCl⋅2 H2O] |  |  |  |  |  |  | dissolved almost as fast
